# Measured values taken from patent US20120165403A1, “METHODS OF INHIBITING THE ACTIVITY OF HSP90 AND/OR ARYL HYDROCARBON RECEPTOR” (UNIVERSITY OF ROCHESTER, priority 2004, published 2012).
# Target: T1, AhR (Mus musculus, UniProt P30561)
# T1 construct: made in house; host or cells: coupled transcription/translation in rabbit reticulocyte lysate (TNT, Promega), 35S-labelled
# T1 sequence (P30561 10-848): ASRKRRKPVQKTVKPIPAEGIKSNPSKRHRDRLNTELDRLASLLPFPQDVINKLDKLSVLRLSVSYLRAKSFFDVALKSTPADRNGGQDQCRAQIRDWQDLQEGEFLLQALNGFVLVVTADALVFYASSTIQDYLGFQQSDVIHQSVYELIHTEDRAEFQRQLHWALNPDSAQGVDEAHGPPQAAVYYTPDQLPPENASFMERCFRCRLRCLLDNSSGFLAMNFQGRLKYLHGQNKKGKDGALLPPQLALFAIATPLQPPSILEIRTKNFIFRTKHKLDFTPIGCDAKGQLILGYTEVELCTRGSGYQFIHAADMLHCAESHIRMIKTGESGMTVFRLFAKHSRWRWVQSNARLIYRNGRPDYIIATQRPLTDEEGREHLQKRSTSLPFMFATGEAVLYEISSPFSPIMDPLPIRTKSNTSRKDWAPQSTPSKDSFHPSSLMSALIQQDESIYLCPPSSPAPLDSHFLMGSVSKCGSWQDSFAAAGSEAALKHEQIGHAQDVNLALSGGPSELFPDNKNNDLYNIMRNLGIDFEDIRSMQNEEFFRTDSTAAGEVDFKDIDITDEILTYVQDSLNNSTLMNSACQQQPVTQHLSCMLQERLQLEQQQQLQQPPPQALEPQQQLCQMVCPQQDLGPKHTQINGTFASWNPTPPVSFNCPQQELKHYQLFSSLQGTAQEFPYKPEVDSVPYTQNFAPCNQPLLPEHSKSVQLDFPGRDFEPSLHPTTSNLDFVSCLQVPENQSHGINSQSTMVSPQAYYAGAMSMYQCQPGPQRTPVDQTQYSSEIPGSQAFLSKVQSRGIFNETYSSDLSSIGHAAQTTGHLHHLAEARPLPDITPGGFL
# Assay: Affinity chromatography on EGCG-conjugated Sepharose, in vitro translated AhR
# Type: binding, murine
# Conditions: 35S-AhR in vitro translated in RRL
# From the text: Murine AhR and ARNT cDNA (obtained from J. Whitlock and O. Hankinson, respectively) were inserted into pcDNA3 (Invitrogen, Carlsbad, Calif.). Chicken hsp90 constructs (FIG. 5), c90711hsp (wild-type), c90G94D (wild-type point mutant gly94→Asp (Grenert et al., J. Biol. Chem. 272:23843-23850 (1997), which is hereby incorporated by reference in its entirety), c90D92A (wild-type point mutant Asp92→Ala (Sullivan et al., J. Biol. Chem. 268:20373-20379 (1993), which is hereby incorporated by reference in its entirety), c90N221 (wild-type truncation mutant encoding a.a. 221-728 (Sullivan et al., J. Biol. Chem. 268:20373-20379 (1993), which is hereby incorporated by reference in its entirety)), c90N303 (a.a. 303-728) and c90N538 (a.a. 538-728) were kind gifts from Dr. D. Toft (Rochester, Minn.). The C-terminal truncation mutant c900507 (a.a. 1-221) was obtained from Dr. L. Neckers (Rockville, Md.) (Grenert et al., J. Biol. Chem. 272:23843-23850 (1997); Marcu et al., J. Biol. Chem. 275:37181-37186 (2000), which are hereby incorporated by reference in their entirety). Human p23 cDNA was excised from pQE80-p23 (obtained from W. Chan Stockton, Calif.) by sequential digests using the restriction enzymes Sad (3′-end) and BamHI (5′-end) and inserted into the similarly digested pET28a (Novagen, Madison, Wis.). […]
smiles,measurement,value
"O=C(O[C@@H]1Cc2c(O)cc(O)cc2O[C@@H]1c1cc(O)c(O)c(O)c1)c1cc(O)c(O)c(O)c1 [EGCG, epigallocatechin gallate]",binding of AhR to immobilized EGCG,not able to bind immobilized EGCG
